Measurements published in article PMC3207004 (Clinical cancer research : an official journal of the …, 2011).
Entries after “also recorded” stand apart in the source; their conditions may differ.

Assays:
[1] = cited from earlier work
[2] = Phase I dose-escalation study: adverse events, DLT and tolerability in patients; conditions: drug-related; 33 patients
[3] = Plasma pharmacokinetics of PF-04928473 after oral PF-04929113; assay type: in vivo, human; conditions: patients
[4] = human, in vivo
[5] = cited from earlier work; remark: listed apart in the source
[6] = test system: Hsp70 levels in peripheral blood mononuclear cells (PBMCs); experiment: Hsp70 induction in peripheral blood by western blot; assay type: in vivo, human
[7] = Comprehensive ophthalmologic evaluation of patients on study; assay type: in vivo, human
[8] = no reference given, cited from earlier work
[9] = cited from earlier work; remark: listed apart in the source
[10] = Continuous EKG monitoring, corrected QT interval; assay type: in vivo, human; conditions: days 1 and 15 of cycle 1
[11] = test system: advanced solid tumors and lymphomas; experiment: Assessment of response; assay type: in vivo, human
[12] = 18 days after initiation of cycle 3

CC1(C)CC(=O)c2c(C(F)(F)F)nn(-c3ccc(C(N)=O)c(N[C@H]4CC[C@H](OC(=O)CN)CC4)c3)c2C1 [PF-04929113]
Oral bioavailability [1]: orally bioavailable | Grade 4 adverse events or deaths [2]: No grade 4 adverse events (AEs) were seen; also recorded: No drug-related grade 4 adverse events or deaths were seen | Absorption following oral administration [3]: rapidly absorbed | ALT elevation, Grade 1 [4]: 5 (15) Number of patients (%) | ALT elevation, Grade 2 [4]: 1 (3) Number of patients (%) | ALT elevation, Grade 3 [4]: 0 Number of patients (%) | ALT elevation, Grade 4 [4]: 0 Number of patients (%) | AST elevation, Grade 1 [4]: 3 (9) Number of patients (%) | AST elevation, Grade 2 [4]: 2 (6) Number of patients (%) | AST elevation, Grade 3 [4]: 1 (3) Number of patients (%) | AST elevation, Grade 4 [4]: 0 Number of patients (%) | Abdominal pain, Grade 1 [4]: 1 (3) Number of patients (%) | Abdominal pain, Grade 2 [4]: 0 Number of patients (%) | Abdominal pain, Grade 3 [4]: 0 Number of patients (%) | Abdominal pain, Grade 4 [4]: 0 Number of patients (%) | Alkaline phosphatase elevation, Grade 1 [4]: 0 Number of patients (%) | Alkaline phosphatase elevation, Grade 2 [4]: 2 (6) Number of patients (%) | Alkaline phosphatase elevation, Grade 3 [4]: 0 Number of patients (%) | Alkaline phosphatase elevation, Grade 4 [4]: 0 Number of patients (%) | Anemia, Grade 1 [4]: 2 (6) Number of patients (%) | Anemia, Grade 2 [4]: 3 (9) Number of patients (%) | Anemia, Grade 3 [4]: 0 Number of patients (%) | Anemia, Grade 4 [4]: 0 Number of patients (%) | Anorexia, Grade 1 [4]: 2 (6) Number of patients (%) | Anorexia, Grade 2 [4]: 1 (3) Number of patients (%) | Anorexia, Grade 3 [4]: 0 Number of patients (%) | Anorexia, Grade 4 [4]: 0 Number of patients (%) | Arthritis (non-septic), Grade 1 [4]: 0 Number of patients (%) | Arthritis (non-septic), Grade 2 [4]: 1 (3) Number of patients (%) | Arthritis (non-septic), Grade 4 [4]: 0 Number of patients (%) | Constipation, Grade 1 [4]: 1 (3) Number of patients (%) | Constipation, Grade 2 [4]: 0 Number of patients (%) | Constipation, Grade 3 [4]: 0 Number of patients (%) | Constipation, Grade 4 [4]: 0 Number of patients (%) | Cough, Grade 1 [4]: 1 (3) Number of patients (%) | Cough, Grade 2 [4]: 0 Number of patients (%) | Cough, Grade 3 [4]: 0 Number of patients (%) | Cough, Grade 4 [4]: 0 Number of patients (%) | Creatinine phosphokinase elevation, Grade 1 [4]: 1 (3) Number of patients (%) | Creatinine phosphokinase elevation, Grade 2 [4]: 0 Number of patients (%) | Creatinine phosphokinase elevation, Grade 3 [4]: 0 Number of patients (%) | Creatinine phosphokinase elevation, Grade 4 [4]: 0 Number of patients (%) | Diarrhea, Grade 1 [4]: 4 (12) Number of patients (%) | Diarrhea, Grade 2 [4]: 0 Number of patients (%) | Diarrhea, Grade 3 [4]: 3 (9) Number of patients (%) | Diarrhea, Grade 4 [4]: 0 Number of patients (%) | Dose Level at which grade 3 AST elevation occurred [4]: 77 mg/m^2 | Dose Level at which grade 3 Non-septic arthritis occurred [4]: 16 mg/m^2 | Dose Level at which grade 3 Thrombocytopenia occurred [4]: 177 mg/m^2 | Dysgeusia, Grade 1 [4]: 1 (3) Number of patients (%) | Dysgeusia, Grade 2 [4]: 1 (3) Number of patients (%) | Dysgeusia, Grade 3 [4]: 0 Number of patients (%) | Dysgeusia, Grade 4 [4]: 0 Number of patients (%) | Dyspepsia, Grade 1 [4]: 1 (3) Number of patients (%) | Dyspepsia, Grade 2 [4]: 0 Number of patients (%) | Dyspepsia, Grade 3 [4]: 0 Number of patients (%) | Dyspepsia, Grade 4 [4]: 0 Number of patients (%) | Edema, Grade 1 [4]: 0 Number of patients (%) | Edema, Grade 2 [4]: 1 (3) Number of patients (%) | Edema, Grade 3 [4]: 0 Number of patients (%) | Edema, Grade 4 [4]: 0 Number of patients (%) | Emesis, Grade 1 [4]: 2 (6) Number of patients (%) | Emesis, Grade 2 [4]: 1 (3) Number of patients (%) | Emesis, Grade 3 [4]: 0 Number of patients (%) | Emesis, Grade 4 [4]: 0 Number of patients (%) | Fatigue, Grade 1 [4]: 4 (12) Number of patients (%) | Fatigue, Grade 2 [4]: 2 (6) Number of patients (%) | Fatigue, Grade 3 [4]: 0 Number of patients (%) | Fatigue, Grade 4 [4]: 0 Number of patients (%) | Flu-like symptoms, Grade 1 [4]: 1 (3) Number of patients (%) | Flu-like symptoms, Grade 2 [4]: 0 Number of patients (%) | Flu-like symptoms, Grade 3 [4]: 0 Number of patients (%) | Flu-like symptoms, Grade 4 [4]: 0 Number of patients (%) | Hyponatremia, Grade 1 [4]: 1 (3) Number of patients (%) | Hyponatremia, Grade 2 [4]: 0 Number of patients (%) | Hyponatremia, Grade 3 [4]: 0 Number of patients (%) | Hyponatremia, Grade 4 [4]: 0 Number of patients (%) | Hypophosphatemia, Grade 1 [4]: 0 Number of patients (%) | Hypophosphatemia, Grade 2 [4]: 1 (3) Number of patients (%) | Hypophosphatemia, Grade 3 [4]: 0 Number of patients (%) | Hypophosphatemia, Grade 4 [4]: 0 Number of patients (%) | Joint pain, Grade 1 [4]: 1 (3) Number of patients (%) | Joint pain, Grade 2 [4]: 1 (3) Number of patients (%) | Joint pain, Grade 3 [4]: 0 Number of patients (%) | Joint pain, Grade 4 [4]: 0 Number of patients (%) | Leukopenia, Grade 1 [4]: 2 (6) Number of patients (%) | Leukopenia, Grade 2 [4]: 0 Number of patients (%) | Leukopenia, Grade 3 [4]: 0 Number of patients (%) | Leukopenia, Grade 4 [4]: 0 Number of patients (%) | Lymphopenia, Grade 1 [4]: 2 (6) Number of patients (%) | Lymphopenia, Grade 2 [4]: 6 (18) Number of patients (%) | Lymphopenia, Grade 3 [4]: 0 Number of patients (%) | Lymphopenia, Grade 4 [4]: 0 Number of patients (%) | Muscle pain, Grade 1 [4]: 0 Number of patients (%) | Muscle pain, Grade 2 [4]: 1 (3) Number of patients (%) | Muscle pain, Grade 3 [4]: 0 Number of patients (%) | Muscle pain, Grade 4 [4]: 0 Number of patients (%) | Nausea, Grade 1 [4]: 8 (24) Number of patients (%) | Nausea, Grade 2 [4]: 1 (3) Number of patients (%) | Nausea, Grade 3 [4]: 0 Number of patients (%) | Nausea, Grade 4 [4]: 0 Number of patients (%) | Neutropenia, Grade 1 [4]: 1 (3) Number of patients (%) | Neutropenia, Grade 2 [4]: 0 Number of patients (%) | Neutropenia, Grade 3 [4]: 0 Number of patients (%) | Neutropenia, Grade 4 [4]: 0 Number of patients (%) | Thrombocytopenia, Grade 1 [4]: 4 (12) Number of patients (%) | Thrombocytopenia, Grade 2 [4]: 0 Number of patients (%) | Thrombocytopenia, Grade 3 [4]: 1 (3) Number of patients (%) | Thrombocytopenia, Grade 4 [4]: 0 Number of patients (%) | Weight loss, Grade 1 [4]: 1 (3) Number of patients (%) | Weight loss, Grade 2 [4]: 0 Number of patients (%) | Weight loss, Grade 3 [4]: 0 Number of patients (%) | Weight loss, Grade 4 [4]: 0 Number of patients (%) | grade 3 AEs: AST elevation [4]: 3% | grade 3 AEs: diarrhea [4]: 9% | grade 3 AEs: non-septic arthritis [4]: 3% | grade 3 AEs: thrombocytopenia [4]: 3% | Arthritis (non-septic), Grade 3 [4, 12]: 1 (3) Number of patients (%) | Dose at which the DLT (non-septic arthritis) was noted [4, 12]: 16 mg/m^2/dose | Retinal damage in animal studies ([5]; canine model, reports, no reference given): irreversible retinal damage | Retinal toxicity ([5]; dog, in vivo): evidence of retinal toxicity | Dose at or above which an increase in Hsp70 levels was seen in all patients ([6]; PBMCs): ≥ 33 mg/m^2/day | Patients with increased Hsp70 protein level at day 15 and/or day 16 ([6]; PBMCs, compared to baseline): 16 out of 19 | Relation of Hsp70 induction to PK parameters (Cmax and AUCinf of each cohort) ([6]; fold increase at 24h versus baseline): linear correlation | Inhibition of Hsp90 in patients (PD studies) ([6]; in vivo): confirmed inhibition of Hsp90 | lowest biologically effective dose ([6]; orally twice weekly, based on PD data): 33 mg/m^2 | Level of Hsp70 induction as a function of dose ([6]; ≤ 44 vs > 44 mg/m^2/dose): greater at higher dose levels | Drug-related ocular toxicity in this study ([7]; oral twice weekly): no clinically significant drug-related ocular toxicity was seen in this study | Ocular examination findings in single patients ([7]; three patients at 77, 133 and 177 mg/m^2, after 8, 10 and 28 cycles): slightly prolonged cone-rod break in the right eye but the ERG was normal; also recorded: normal eye exam; also recorded: slightly prolonged cone-rod break in one patient | Patients with visual symptoms (nictalopia and blurred vision) ([8]; another phase I study, daily administration): 4 out of 20 and Four out of 20 | Patients who complained of blurred vision ([8]; daily administration, grade 1): one | Patients who complained of nictalopia ([8]; daily administration, grade 1): Three | Onset of visual event after beginning the drug ([8]; in most cases, daily administration): ≤ 2 weeks | DLTs with daily administration [8]: 3 cases of grade 3 diarrhea, 1 case of grade 2 dehydration and grade 3 gastrointestinal hemorrhage and 1 case of grade 3 visual disturbance and grade 3 diarrhea | Water solubility [9]: water soluble | Effect on the corrected QT interval [10]: did not reveal any effect | Median duration of disease stabilization ([11]; 15 patients): 16 weeks | Objective responses ([11]; 32 evaluable patients): no objective tumor responses | Anti-tumor activity as a single-agent ([11]; twice weekly continuous dosing): modest anti-tumor activity
